{
  "source": "patent US20060141047A1",
  "about": "“Methods and compositions for delivery of catecholic butanes for treatment of obesity” (priority 2003, published 2006)",
  "key": {"[1]": {"test": "Fresh weights of isolated organs after 20 week feeding with fat-rich diet containing M4N", "type": "in vivo, mice", "procedure": "(§1) While no definite conclusions can be made regarding most organs due to the small size of the populations tested, a decrease in adipocyte (fat cells) weight was nevertheless significant (0.84 g vs. 0.196 g) following a 20 week feeding with a fat-rich diet containing M4N. In particular, fat tissues from two control mice (C24 and C25) which were fed a fat-rich diet without M4N were isolated and incubated with CREM solvent or with CREM solvent plus M4N for a total period of 6 days (first extract 72 hours and second extract for an additional 72 hours). The fat cell weights were measured at 0 time, the third day and the sixth day following incubation in CREM solvent and without M4N."}, "[2]": {"test": "Toxicokinetic (TK) analysis of M4N serum concentration", "type": "in vivo, Beagle Dogs", "conditions": "dogs, CET or DMSO formulations, minimal toxicity", "procedure": "Blood samples from the CET group animals were collected via the jugular vein on Study Day (SD) 1, SD 3, SD 6, and SD 8 at the following time points: predose, 0.25, 0.5, 1, 2, 4, 8, and 16 hours following the completion of the approximate 4-hour infusion.\nBlood samples from the DMSO group animals were collected via the cephalic vein on SD 1, SD 3, SD 6, and SD 8 at the following time points: predose, 0.25, 0.5, 1, 2, 4, 8, and 16 hours following the final injection dose of M4N-DMSO.\nBlood samples collected from both groups of animals were processed for plasma and serum for TK analysis.\nThe plasma and serum samples were sent to MedTox Laboratories, the Sponsor's designated laboratory for TK analysis. TK analysis of M4N plasma and serum concentration-time data was performed using a validated method (M200406) by MedTox Laboratories and analyzed by noncompartmental methods to obtain estimates of toxicokinetic parameters (where data allow), but not necessarily limited to, Cmax, Tmax and AUC."}, "[3]": {"test": "Maximum amount of M4N dissolved in Cremaphor EL/ethanol/saline solvent", "type": "physicochemical", "conditions": "6% Cremaphor EL, 6% ethanol, 88% saline", "description": "To assess the toxicity of prolonged intraperitoneal systemic treatment with M4N, and to determine a safe dosage for the following xenograft experiments, the following toxicity test was performed."}, "fat tissues": {"tested_on": "fat tissues", "test": "Incubation of isolated fat tissue with CREM solvent plus M4N, fat weight", "set-up": "species or system mice", "procedure": "as §1"}, "[4]": {"test": "Tissue distribution of 3H-M4N after a single intraperitoneal or intravenous injection", "type": "in vivo, mice", "conditions": "3 hours post-injection, i.p. or i.v.", "procedure": "M4N Tissue Distribution Studies Using 3H—M4N. […] The insoluble pellet was then further extracted with EtOH.\nA mixture of tritiated and cold M4N was dissolved in a 6% Cremaphor EL, 6% ethanol, 88% saline solvent then injected intraperitoneally (i.p.) and intravenously (i.v.) via tail vein into mice. At 3 hours post-injection, the organs and blood were harvested and weighed, and the M4N was extracted. […] M4N was successfully distributed to various organs at 3 hours post-injection by both i.p. and i.v. routes of administration. […] Corroborating this, a very similar profile of distribution was observed using an oral route of administration described below. The majority of the recovered radioactivity localized to the gastrointestinal tract organs: the stomach, small intestine, caecum, and large intestine, in the range of 3 μg to 20 μg of M4N per gram of tissue."}, "[5]": {"type": "in vivo", "conditions": "for % Weight Change / Weight on End Date: M4N-fed mice", "procedure": "Tissue Distribution and Toxicity Analysis Following Short-Term and Long-Term Oral Feeding. For short-term feeding experiments, 30 mg of M4N dissolved in 300 μL castor oil was orally administered to each of 6 mice. At 2 h, 4 h, and 8 h post-administration time points, 2 mice were sacrificed, the organs and blood were collected, and the M4N extracted and quantitated as described below. […] Food balls weighed 9 g and contained 242 mg M4N each. Two mice, one male and one female, were reserved for long-term drug retention studies; and fourteen mice, both male and female, were used for long-term drug toxicity studies. At the end of feeding, mice were sacrificed, the organs and blood were collected, and the M4N extracted and quantitated as described below.\nIn particular, weight was measured on a bi-weekly or monthly basis. […] However, to assess long-term drug toxicity, only the mice that were treated for more than 20 weeks were compared. A total of 14 mice were treated for more than 20 weeks, 6 M4N-treated and 8 control mice. Since females generally eat less than males and have lower body weight, comparisons were drawn between mice of the same sex. […] The fact that the control mice, both male and female, consumed much more food than the M4N-treated mice evidences a greater preference for food in the control subjects."}, "[6]": {"conditions": "mouse, in vivo, ip", "description": "M4N Tissue Distribution Studies Using 3H—M4N. Harlan ICR mice or C3 cell-induced tumor-bearing C57bl/6 mice were injected via tail vein or intraperitoneally with 100 μL of Cremaphor-ethanol based solvent containing 100 μCi of tritiated M4N and 60 mM of cold M4N. At the specified time post-injection, the mice were sacrificed, the organs and blood were collected, weighed, then dissolved overnight in 4 M guanidine isothiocyanate (GITC). The insoluble pellet was then further extracted with EtOH. Tritium content of both the GITC extract and the EtOH extract was measured on a Packard scintillation counter and the quantity of M4N in each organ was calculated based on the specific activity of the inoculum.\nTo determine the distribution of M4N in tissues over time following a single application, and also to assess the ability to deliver M4N to a distant tumor, six C3 cell-induced tumor bearing mice (A-F) were treated i.p. with ^3H— M4N as described above. At 4 hours, 6 hours, 18 hours, and 6 days post-injection, the quantities of ^3H— M4N in various tissues and the tumors were measured."}, "[7]": {"conditions": "dogs", "procedure": "In this example the Maximal Tolerable Dose (MTD) of two different formulations of M4N [Cremaphor-Ethanol (CET) or Dimethyl Sulfoxide (DMSO)] to male and female Beagle Dogs was determined.\nDogs were treated prophylactically with an analgesic and antibiotic on the day of surgery and with antibiotics and/or analgesics following surgery (according to Gene Logic Inc. SOP Nos. 324.0.2, 325.0.1, and 326.0.2, as appropriate.) Other treatments were provided as recommended by the staff veterinarian. The catheter lines were flushed with saline during the postoperative recovery period with a frequency deemed appropriate by the Study Director.\nThus the M4N-DMSO group animals were administered with M4N-DMSO with eight intravenous injections via the non-VAP jugular vein every 30 minutes over a 4-hour period. This frequency of delivery mimicked the delivery of the test article using the infusion pump.\nAnimals from the CET group were observed during the entire infusion period and for at least one hour following end of infusion. The dogs in the DMSO group were observed throughout the jugular vein injection period and for at least one hour following the last (eighth) injection."}},
  "note": "Where “and” joins values, the source holds several entries; their conditions need not be identical. Identical values can stand only once. Like-named read-outs stand apart in the source and are kept apart here.",
  "data": [
    {"smiles": "COc1ccc(C[C@@H](C)[C@@H](C)Cc2ccc(OC)c(OC)c2)cc1OC", "note": "[M4N, meso-1,4-bis(3,4-dimethoxyphenyl)-2,3-dimethylbutane]", "values": [
      {"measurement": "Fresh organ weight, Bladder", "setting": "[1]; Female, 20 week feeding", "value": 0.034, "unit": "g"},
      {"measurement": "Fresh organ weight, Caecum", "setting": "[1]; Female, 20 week feeding", "value": 0.162, "unit": "g"},
      {"measurement": "Fresh organ weight, Colon", "setting": "[1]; Female, 20 week feeding", "value": 0.195, "unit": "g"},
      {"measurement": "Fresh organ weight, Heart", "setting": "[1]; Female, 20 week feeding", "value": 0.107, "unit": "g"},
      {"measurement": "Fresh organ weight, Kidney", "setting": "[1]; Female, 20 week feeding", "value": 0.3, "unit": "g"},
      {"measurement": "Fresh organ weight, Liver", "setting": "[1]; Female, 20 week feeding", "value": 1.153, "unit": "g"},
      {"measurement": "Fresh organ weight, Lung", "setting": "[1]; Female, 20 week feeding", "value": 0.205, "unit": "g"},
      {"measurement": "Fresh organ weight, Pancreas", "setting": "[1]; Female, 20 week feeding", "value": 0.18, "unit": "g"},
      {"measurement": "Fresh organ weight, Small Intestine", "setting": "[1]; Female, 20 week feeding", "value": 1.193, "unit": "g"},
      {"measurement": "Fresh organ weight, Spleen", "setting": "[1]; Female, 20 week feeding", "value": 0.08, "unit": "g"},
      {"measurement": "Fresh organ weight, Stomach", "setting": "[1]; Female, 20 week feeding", "value": 0.243, "unit": "g"},
      {"measurement": "Fresh weight, Fat", "setting": "[1]; Female, 20 week feeding", "value": 0.509, "unit": "g"},
      {"measurement": "Fresh organ weight, Bladder", "setting": "[1]; Male, 20 week feeding", "value": 0.026, "unit": "g"},
      {"measurement": "Fresh organ weight, Caecum", "setting": "[1]; Male, 20 week feeding", "value": 0.133, "unit": "g"},
      {"measurement": "Fresh organ weight, Colon", "setting": "[1]; Male, 20 week feeding", "value": 0.186, "unit": "g"},
      {"measurement": "Fresh organ weight, Heart", "setting": "[1]; Male, 20 week feeding", "value": 0.319, "unit": "g"},
      {"measurement": "Fresh organ weight, Kidney", "setting": "[1]; Male, 20 week feeding", "value": 0.35, "unit": "g"},
      {"measurement": "Fresh organ weight, Liver", "setting": "[1]; Male, 20 week feeding", "value": 1.44, "unit": "g"},
      {"measurement": "Fresh organ weight, Lung", "setting": "[1]; Male, 20 week feeding", "value": 0.156, "unit": "g"},
      {"measurement": "Fresh organ weight, Pancreas", "setting": "[1]; Male, 20 week feeding", "value": 0.121, "unit": "g"},
      {"measurement": "Fresh organ weight, Small Intestine", "setting": "[1]; Male, 20 week feeding", "value": 1.44, "unit": "g"},
      {"measurement": "Fresh organ weight, Small Vesicles", "setting": "[1]; Male, 20 week feeding", "value": 0.154, "unit": "g"},
      {"measurement": "Fresh organ weight, Spleen", "setting": "[1]; Male, 20 week feeding", "value": 0.065, "unit": "g"},
      {"measurement": "Fresh organ weight, Stomach", "setting": "[1]; Male, 20 week feeding", "value": 0.177, "unit": "g"},
      {"measurement": "Fresh organ weight, Testes", "setting": "[1]; Male, 20 week feeding", "value": 0.189, "unit": "g"},
      {"measurement": "Fresh weight, Fat", "setting": "[1]; Male, 20 week feeding with fat-rich diet", "value": 0.196, "unit": "g"},
      {"measurement": "Blood levels of M4N achieved", "setting": "[2]", "value": "up to 14,000 ng/ml"},
      {"measurement": "Maximum amount of M4N which may be dissolved in the solvent", "setting": "[3]", "value": 20, "unit": "mg/mL"},
      {"measurement": "Fat Weight After First Extraction", "setting": "fat tissues; fat tissue of mouse C25, 72 hours in CREM solvent + 21.4 mg M4N", "value": 0.481, "unit": "g"},
      {"measurement": "Fat Weight After Second Extraction", "setting": "fat tissues; fat tissue of mouse C25, additional 72 hours (6 days total) in CREM solvent + M4N", "value": 0.059, "unit": "g"},
      {"measurement": "M4N detected in heart or blood", "setting": "[4]", "value": "Little or no M4N"},
      {"measurement": "M4N present in liver and fat", "setting": "[4]", "value": "Significant quantities"},
      {"measurement": "Average % Weight Change", "setting": "[5]; Female mice treated 20 weeks", "value": 24.9, "unit": "%"},
      {"measurement": "Average Amount of Food Consumed", "setting": "[5]; Female mice treated 20 weeks", "value": 258.8, "unit": "g"},
      {"measurement": "% Weight Change", "setting": "[5]; length of treatment 8 weeks", "value": "20.5% and 18.1%"},
      {"measurement": "Weight on End Date", "setting": "[5]; length of treatment 8 weeks", "value": "26.4 g and 24.1 g"},
      {"measurement": "Weight on End Date", "setting": "[5]; length of treatment 9 weeks", "value": "18.9 g and 24.2 g and 19.7 g"},
      {"measurement": "% Weight Change", "setting": "[5]; length of treatment 11 weeks", "value": 11.8, "unit": "%"},
      {"measurement": "Weight on End Date", "setting": "[5]; length of treatment 11 weeks", "value": 20.8, "unit": "g"},
      {"measurement": "Average % Weight Change", "setting": "[5]; Male mice treated 20 weeks", "value": 21, "unit": "%"},
      {"measurement": "Average Amount of Food Consumed", "setting": "[5]; Male mice treated 20 weeks", "value": "225 g and 225.0 g"},
      {"measurement": "Effect on appetite", "setting": "[5]; both male and female mice, long-term oral feeding", "value": "reduced the appetite"},
      {"measurement": "Effect on body weight", "setting": "[5]; mice, systemic or oral administration", "value": "caused weight loss"},
      {"measurement": "Toxic effects on female mice", "setting": "[5]; mouse, in vivo, po", "value": "did not have toxic effects"},
      {"measurement": "M4N in the tumor", "setting": "[6]", "value": "294 ng M4N per gram of wet tumor"},
      {"measurement": "M4N tissue levels at 6 days post-injection relative to levels at 6 hours", "setting": "[6]", "value": "5-10%"},
      {"measurement": "Time of peak M4N tissue levels", "setting": "[6]", "value": "approximately 6 hours"},
      {"measurement": "Dose safely administered by intravenous infusion over four hours", "setting": "[7]; CET vehicle", "value": "up to 10 mg/kg"},
      {"measurement": "Dose safely administered by intravenous infusion over four hours", "setting": "[7]; DMSO vehicle", "value": "up to 100 mg/kg"}
    ]}
  ]
}
